System: experimental animal plasma
Assay: In-vitro Prothrombin Time (PT) Test
Type: biochemical
Settings: for Prothrombin Time: coagulant ingredient 1 weight % in water, 0.05 mL sample + 0.1 mL plasma, 37° C., thromboplastin added, mean of 10 repeats
Method: An In-vitro Prothrombin Time (PT) Test has been designed to test the coagulant efficacy (see Luz, L. et at., International Journal of Biological Macromolecules, 58 (2013), p. 31-36). […] The experimental methodology used was: […] When testing the “Toothpastes” in Table 2, below, a toothpaste slurry was prepared by mixing 1 part of the toothpaste under test with 2 parts DI water (all parts being parts by weight); then the supernatant was obtained by centrifuging the slurry for 20 mins at 8000 rpm. 0.1 mL of experimental animal plasma was placed in each testing tube (animal blood samples used in the experiment were waste products, and the animals were otherwise used for food). 0.05 mL of the test samples (0.05 mL of DI water or saline solution in control group) were added to separate tubes and mixed with the plasma. The mixtures were then heated in a water bath at 37° C. for 3 min, then 0.2 mL of thromboplastin (which had been preheated to 37° C.) was added to each testing tube and the contents mixed. A stopwatch was started immediately upon adding the thromboplastin to record the coagulation time (Prothrombin Time).

| Compound | Prothrombin Time | clotting time compared with the controls (DI water and saline solution) (ingredient 1 weight % in water) | difference in clotting time between tranexamic acid and 4-(aminomethyl) benzoic acid (ingredients 1 weight % in water) |
| --- | --- | --- | --- |
| NC[C@H]1CC[C@H](C(=O)O)CC1 [Tranexamic acid, tranexamic acid, reference compound] | 11.66 s |  |  |
| NCc1ccc(C(=O)O)cc1 [4-(aminomethyl)benzoic acid] | 11.14 s | significantly lower clotting time than the controls | No significant difference |
